From PMC12112476, “Mass Spectrometric ITEM-FOUR Analysis Reveals Coding Single-Nucleotide Polymorphisms in Human Cardiac Troponin T That Evade Detection by Sandwich ELISAs Which Use Monoclonal Antibodies M7 and M11.7 from the Elecsys Troponin T® Assay” (International Journal of Molecular Sciences, 2025)
Blank lines part the entries; values can stand above or below the sequence they belong to.

Legend:
[1] = system: monoclonal anti-hcTnT antibody M7; experiment: ITEM-FOUR nano-ESI mass spectrometry: in-solution immune complex formation and gas-phase dissociation of M7 antibody–epitope peptide complexes; format: binding; details: for dx (V): Boltzmann curve parameter; for dx (V) / ΔCV50 (V) / Slope (%/V): peptide:antibody 2.1:1; for dx (V) / ΔCV50 (V) / Final (%) / Initial (%) / Slope (%/V): averaged from two acquisitions; for KD m0g# [Ø]: apparent gas-phase dissociation constant, dimensionless number, extrapolated to ambient temperature; for Binding Type: class by difference of normalized product ion intensities over ΔCV; for ΔCV50 (V): collision cell voltage difference for 50% dissociation, Boltzmann fit; for Final (%): normalized product ion quantity at highest applied ΔCV, peptide:antibody 2.1:1, 200 mM ammonium acetate pH 6.7; for Initial (%): normalized product ion quantity at lowest applied ΔCV, peptide:antibody 2.1:1, 200 mM ammonium acetate pH 6.7, at least 1 h RT, nano-ESI, ΔCV 0-58 V; for ΔGm0g# / Tamb ΔSm0g# / ΔHm0g#: pseudo thermodynamic value of gas-phase complex dissociation; for ΔGm0g#: Ellingham diagram read at Tamb; for Tamb ΔSm0g# / ΔHm0g#: extrapolated to Tamb; for Slope (%/V): slope of Boltzmann curve; for in-solution immune complex formation with M7 (binding in words): nano-ESI-MS, 200 mM ammonium acetate pH 6.7, peptide:antibody 2.1:1 (epitope series) or 13:1 (negative controls)
Protocol: (§1) Immune complex-containing solutions of a wild-type epitope peptide and its corresponding antibody, e.g., P11 and M7, were prepared by mixing the two components in 200 mM ammonium acetate buffer (pH 6.7), ensuring a molar excess of the epitope peptide over the antibody to achieve binding saturation. After an incubation period of one hour, the entire mixture (~3 µL) was loaded into a nano-ESI emitter and electrosprayed. The mass spectrometer was configured to transmit only ion signals with m/z values above 3850, effectively eliminating signals from the unbound peptide (Figure 1A).
(§2) Antibody–peptide mixture solutions were prepared for ITEM FOUR experiments by mixing 5 µL of one antibody working solution with one assigned peptide working solution to generate antibody to peptide molar ratios of 1:2.1 for all solutions that contained the M7 antibody. For mixture solutions containing the M11.7 or the anti-TNFα antibody, 1:13 molar ratios were prepared. Antibodies were incubated together with peptides for at least one hour at room temperature prior to analysis.
(§3) Data acquisition for ITEM-FOUR experiments was performed as described in [18] with the Synapt G2S mass spectrometer (Waters MS-Technologies, Wilmslow, UK) and with the following instrumental settings: source temperature, 40 °C; capillary voltage, 1.0–1.3 kV; sample cone voltage, 130 V; source offset voltage, 130 V; trap gas flow (argon), 8.0 mL/min; helium gas: 20 bar. All mass spectra were acquired in positive-ion mode applying a mass window of m/z 200–8000. The quadrupole analyzer was used to block transmission of lower-molecular-mass ions: M1 = 5000 with dwell time of 25% and ramp time of 25%; M2 = 5000 with dwell time of 25% and ramp time of 25%; M3 = 5000. ΔCV in the TRAP collision cell was increased stepwise as follows: 0, 2, 6, 10, 14, 18, 22, 26, 30, 34, 40, 46, 52 and 58 V. The ion mobility separation mode was not used. All acquired scans during a given collision cell voltage difference setting were integrated to obtain an averaged spectrum from which ion intensities were extracted for ITEM-FOUR calculations. Data were acquired and processed with MassLynx software version 4.1 (Waters MS-Technologies). For exact time stamps of all measurements, refer to Table S2 in the Supplement (see also the deposited raw data supplement in the PRIDE directory). All mass spectra for each ΔCV setting were smoothed using the Savitzky-Golay method. Spectra of antibody solutions and antibody–peptide mixture solutions were smoothed using 30 cycles with a 15-mass unit window at the high mass end and at the low mass end with 3 cycles and a 2-mass unit window. All measurements were recorded in duplicate. The mass spectrometric raw data have been deposited via the ProteomeXchange Consortium in the PRIDE partner repository with the dataset identifier PXD058812 [70].
(§4) The Origin Pro 2023b (64-bit, OriginLab Corporation, Northampton, MA, USA) software package with an automation script for processing multiple datasets was used to graphically plot the extracted intensities of the ion signals of all relevant molecular entities (the immune complex with two bound peptides, the immune complex with one bound peptide, free antibodies, and free peptides) against their corresponding charge state for each collision cell voltage difference (ΔCV). Subsequently, Gaussian curve fittings were performed separately for each molecular entity. […] Iterations were performed for R2 values to be at least 0.91. Apices of Gaussian curves provided the intensities and the average m/z values for each molecular species. Intensity values of individual molecular entities (educts and products) were summed and normalized. Normalized intensities of educts and products from duplicate measurements were averaged.
(§5) The number of atoms from rituximab was used because the amino acid sequences of neither the M7 nor the M11.7 antibody were disclosed. […]

[2] = system: monoclonal anti-hcTnT antibody M11.7; experiment: ITEM-FOUR nano-ESI mass spectrometry: in-solution immune complex formation and gas-phase dissociation of M11.7 antibody–epitope peptide complexes; format: binding; details: for dx (V): Boltzmann curve parameter; for dx (V) / ΔCV50 (V) / Slope (%/V) / Δ (% pts) / in-solution immune complex formation with M11.7 (binding in words): peptide:antibody 13:1; for dx (V) / ΔCV50 (V) / Final (%) / Initial (%) / Slope (%/V): averaged from two acquisitions; for KD m0g# [Ø]: apparent gas-phase dissociation constant, dimensionless number, extrapolated to ambient temperature; for Binding Type: class by difference of normalized product ion intensities over ΔCV; for ΔCV50 (V): collision cell voltage difference for 50% dissociation, Boltzmann fit; for Final (%): normalized product ion quantity at highest applied ΔCV, peptide:antibody 13:1, 200 mM ammonium acetate pH 6.7; for Initial (%): normalized product ion quantity at lowest applied ΔCV, peptide:antibody 13:1, 200 mM ammonium acetate pH 6.7, at least 1 h RT, nano-ESI, ΔCV 0-58 V; for ΔGm0g# / Tamb ΔSm0g# / ΔHm0g#: pseudo thermodynamic value of gas-phase complex dissociation; for ΔGm0g#: Ellingham diagram read at Tamb; for Tamb ΔSm0g# / ΔHm0g#: extrapolated to Tamb; for Slope (%/V): slope of Boltzmann curve; for Δ (% pts): difference Final minus Initial normalized product ion intensity; for in-solution immune complex formation with M11.7 (binding in words): nano-ESI-MS, 200 mM ammonium acetate pH 6.7
Protocol: as §1, §2, §3, §4, §5

Sequence: LVSLKDRIERCRAER [Peptide P13]
dx (V) [1]: 6.55 V
KD m0g# [Ø] [1]: 0.28 Ø
Binding Type [1]: orthodox (The differences in normalized product ion intensity values were always greater than 15 percentage points)
ΔCV50 (V) [1]: 23.30 V
Final (%) [1]: 83.40%
Initial (%) [1]: 40.36%
ΔGm0g# [1]: 0.758 kcal/mol
Tamb ΔSm0g# [1]: 12.43 kcal/mol
ΔHm0g# [1]: 13.18 kcal/mol
Slope (%/V) [1]: 1.64 %/V

Sequence: AEQQRIQNEREKERQ [Peptide P29]
dx (V) [2]: 5.17 V
Binding Type [2]: unorthodox (Differences in normalized product ion intensities were less than 15 percentage points, but greater than 5 percentage points)
ΔCV50 (V) [2]: 9.96 V
Δ (% pts) [2]: 9.53 % pts
Final (%) [2]: 93.92%
Initial (%) [2]: 84.39%
Slope (%/V) [2]: 0.46 %/V

Sequence: AEQQSIRNEREKERQ [Peptide P26]
dx (V) [2]: 6.49 V
Binding Type [2]: unorthodox (Differences in normalized product ion intensities were less than 15 percentage points, but greater than 5 percentage points)
ΔCV50 (V) [2]: 26.67 V
Δ (% pts) [2]: 6.00 % pts
Final (%) [2]: 86.48%
Initial (%) [2]: 80.48%
Slope (%/V) [2]: 0.25 %/V

Sequence: LVSLKDRIKRRRAER [Peptide P12]
Binding Type [1]: non-binding (The differences in normalized product intensity values were less than 5 percentage points)
in-solution immune complex formation with M7 (binding in words) [1]: no immune complex had formed in solution
in-solution immune complex formation with M7 (binding in words) ([1]; listed as E138K): disrupted binding
Final (%) [1]: 92.28%
Initial (%) [1]: 89.38%

Sequence: AEQQCIRNEREKERQ [Peptide P25]
dx (V) [2]: 6.00 V
Binding Type [2]: unorthodox (Differences in normalized product ion intensities were less than 15 percentage points, but greater than 5 percentage points)
ΔCV50 (V) [2]: 10.06 V
Final (%) [2]: 93.33%
Initial (%) [2]: 80.75%
Slope (%/V) [2]: 0.52 %/V

Sequence: AEQQHIRNEREKERQ [Peptide P27]
dx (V) [2]: 7.60 V
Binding Type [2]: unorthodox (Differences in normalized product ion intensities were less than 15 percentage points, but greater than 5 percentage points)
ΔCV50 (V) [2]: 14.04 V
Final (%) [2]: 93.49%
Initial (%) [2]: 80.22%
Slope (%/V) [2]: 0.44 %/V

Sequence: AEQQRIWNEREKERQ [Peptide P28]
dx (V) [2]: 6.90 V
Binding Type [2]: unorthodox (Differences in normalized product ion intensities were less than 15 percentage points, but greater than 5 percentage points)
ΔCV50 (V) [2]: 13.80 V
Δ (% pts) [2]: 6.99 % pts
Final (%) [2]: 93.90%
Initial (%) [2]: 86.91%
Slope (%/V) [2]: 0.25 %/V

Sequence: AQQQRIRNEREKERQ [Peptide P22]
dx (V) [2]: 7.70 V
Binding Type [2]: unorthodox (Differences in normalized product ion intensities were less than 15 percentage points, but greater than 5 percentage points)
ΔCV50 (V) [2]: 25.18 V
Final (%) [2]: 97.12%
Initial (%) [2]: 87.08%
Slope (%/V) [2]: 0.33 %/V

Sequence: LVSLKDRIERRGAER [Peptide P15]
dx (V) [1]: 6.09 V
Binding Type [1]: unorthodox (Differences in normalized product ion intensities were less than 15 percentage points, but greater than 5 percentage points)
ΔCV50 (V) [1]: 24.89 V
Final (%) [1]: 84.98%
Initial (%) [1]: 70.69%
Slope (%/V) [1]: 0.59 %/V

More lines, main results first:

KD m0g# [Ø] [1]: 0.28 Ø
Sequence: LVSLKDRIERRWAER [Peptide P14]
dx (V) [1]: 4.33 V
Binding Type [1]: orthodox (The differences in normalized product ion intensity values were always greater than 15 percentage points)
ΔCV50 (V) [1]: 18.02 V
Final (%) [1]: 93.86%
Initial (%) [1]: 54.37%
ΔGm0g# [1]: 0.748 kcal/mol
Tamb ΔSm0g# [1]: 21.26 kcal/mol
ΔHm0g# [1]: 22.01 kcal/mol
Slope (%/V) [1]: 2.28 %/V

KD m0g# [Ø] [2]: 1.43 Ø
Sequence: AEQQRIRNERKKERQ [Peptide P32]
dx (V) [2]: 7.32 V
Binding Type [2]: orthodox (The differences in normalized product ion intensity values were always greater than 15 percentage points)
ΔCV50 (V) [2]: 17.63 V
Final (%) [2]: 96.03%
Initial (%) [2]: 69.09%
ΔGm0g# [2]: -0.21 kcal/mol
Tamb ΔSm0g# [2]: 12.24 kcal/mol
ΔHm0g# [2]: 12.03 kcal/mol
Slope (%/V) [2]: 0.92 %/V

KD m0g# [Ø] [1]: 0.62 Ø
Sequence: LVSLKDRIERRQAER [Peptide P17]
dx (V) [1]: 6.46 V
Binding Type [1]: orthodox (The differences in normalized product ion intensity values were always greater than 15 percentage points)
ΔCV50 (V) [1]: 24.61 V
Final (%) [1]: 82.69%
Initial (%) [1]: 56.18%
ΔGm0g# [1]: 0.272 kcal/mol
Tamb ΔSm0g# [1]: 8.824 kcal/mol
ΔHm0g# [1]: 9.097 kcal/mol
Slope (%/V) [1]: 1.03 %/V

KD m0g# [Ø] [1]: 0.48 Ø
Sequence: LVSLKDRIERRPAER [Peptide P16]
dx (V) [1]: 5.05 V
Binding Type [1]: orthodox (The differences in normalized product ion intensity values were always greater than 15 percentage points)
ΔCV50 (V) [1]: 15.83 V
Final (%) [1]: 96.90%
Initial (%) [1]: 55.34%
ΔGm0g# [1]: 0.44 kcal/mol
Tamb ΔSm0g# [1]: 20.02 kcal/mol
ΔHm0g# [1]: 20.46 kcal/mol
Slope (%/V) [1]: 2.06 %/V

in-solution immune complex formation with M11.7 (binding in words) [2]: Loss of binding
Sequence: AEQQRIRNEQEKERQ [Peptide P31]
Binding Type [2]: non-binding (The differences in normalized product intensity values were less than 5 percentage points)
Final (%) [2]: 93.39%
Initial (%) [2]: 93.60%

KD m0g# [Ø] [2]: 1.18 Ø
Sequence: AKQQRIRNEREKERQ [Peptide P23]
dx (V) [2]: 7.29 V
Binding Type [2]: orthodox (The differences in normalized product ion intensity values were always greater than 15 percentage points)
ΔCV50 (V) [2]: 22.47 V
Final (%) [2]: 89.77%
Initial (%) [2]: 67.00%
ΔGm0g# [2]: -0.1 kcal/mol
Tamb ΔSm0g# [2]: 9.037 kcal/mol
ΔHm0g# [2]: 8.941 kcal/mol
Slope (%/V) [2]: 0.78 %/V

in-solution immune complex formation with M11.7 (binding in words) [2]: Loss of binding
Sequence: AEQRRIRNEREKERQ [Peptide P24]
Binding Type [2]: non-binding (The differences in normalized product intensity values were less than 5 percentage points)
Final (%) [2]: 93.57%
Initial (%) [2]: 90.25%

in-solution immune complex formation with M11.7 (binding in words) [2]: Loss of binding
Sequence: AEQQRIRNEWEKERQ [Peptide P30]
Binding Type [2]: non-binding (The differences in normalized product intensity values were less than 5 percentage points)
Final (%) [2]: 94.03%
Initial (%) [2]: 90.48%
